One test concerns the target MCL-1 (Homo sapiens (Human), UniProt Q07820). Briefly: Cell free Mcl-1:Bim affinity assay (fluorescence polarization competition). Particulars: 15 nM MCL-1, 5 nM FITC-Bim, 1 hour at room temperature; class symbols; read-out: BIM_Ki. The test is classed as binding. A digest of the protocol: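 Compounds competed with FITC-labelled Bim peptide (5 nM) for MCL-1 (15 nM) in HEPES/NaCl buffer with 1% DMSO, 1 h at room temperature. Fluorescence polarization (535 nm emission) gave % inhibition versus DMSO and positive controls; IC50 from 10-point curves, converted to Ki by the Nikolovska-Coleska equation.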
On the technique in general: Polarisation of emitted light reports the rotation of a fluorescent probe.

In another test the test system is H929 cells. Nature of the test: Cell viability assay (H929 10 FBS). The test is classed as cell-based. The conditions noted are these: Homo sapiens, NCI-H929, 24 hours, read-out: H929_10FBS IC50. A digest of the protocol:
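H929 cells, 4000/well, in RPMI 1640 with 10% FBS, sodium pyruvate, HEPES and glucose were exposed to compound 24 h at 37 °C. Viability read as luminescence after 30-60 min at RT with CellTiter-Glo or ATPlite 1 Step.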

pIC50, pKi: −log10 of the molar value. Where only a bound is given, the exact number is not on record here.

Chain of MCL-1 (Q07820 whole entry): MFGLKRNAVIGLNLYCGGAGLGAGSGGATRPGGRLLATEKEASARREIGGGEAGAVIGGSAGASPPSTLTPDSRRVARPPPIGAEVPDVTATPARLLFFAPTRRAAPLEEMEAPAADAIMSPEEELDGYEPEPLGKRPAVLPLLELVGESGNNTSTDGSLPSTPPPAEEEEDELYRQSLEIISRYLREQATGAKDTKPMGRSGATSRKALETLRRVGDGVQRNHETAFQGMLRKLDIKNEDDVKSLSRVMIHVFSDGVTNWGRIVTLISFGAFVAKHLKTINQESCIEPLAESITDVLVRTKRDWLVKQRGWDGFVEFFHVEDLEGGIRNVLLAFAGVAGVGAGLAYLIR

As to `CO[C@H]1/C=C/COC2(CC2)C(=O)NS(=O)(=O)c2ccc3c(c2)N(C[C@@H]2CC[C@H]21)C[C@@]1(CCCc2cc(Cl)ccc21)CO3` [Example 28, (3R,6R,7S,8E,22S)-6′-Chloro-7-methoxy-12,12-ethylene-15,15-dioxo-spiro[[11,20]dioxa-15-thia-1,14-diazatetracyclo[14.7.2.03,6.019,24]pentacosa[8,16(25),17,19(24)]tetraene-22,1′-tetralin]-13-one], the pKi on MCL-1 is over 9.00. For the same compound, the negative logarithm of the IC50 (pIC50) (in general, the negative decadic logarithm of the IC50, by convention in mol/L) in the test with H929 cells is under 6.00.
Consider `CN(C(=O)O[C@H]1/C=C/COC(C)(C)C(=O)NS(=O)(=O)c2ccc3c(c2)N(C[C@@H]2CC[C@H]21)C[C@@]1(CCCc2cc(Cl)ccc21)CO3)[C@@H]1CCOC1` [Example 64, [(3R,6R,7S,8E,22S)-6′-Chloro-12,12-dimethyl-13,15,15-trioxo-spiro[11,20-dioxa-15-thia-1,14-diazatetracyclo[14.7.2.03,6.019,24]pentacosa-8,16,18,24-tetraene-22,1′-tetralin]-7-yl] N-methyl-N-[(3R)-tetrahydrofuran-3-yl]carbamate], for which, on MCL-1, the pKi is over 9.00. In addition, the negative-log IC50 (pIC50) in the test with H929 cells was over 6.30.
The matching figures for `CN(C(=O)O[C@H]1/C=C/CN(C)C(C)(C)C(=O)NS(=O)(=O)c2ccc3c(c2)N(C[C@@H]2CC[C@H]21)C[C@@]1(CCCc2cc(Cl)ccc21)CO3)[C@H]1CCOC1` [Example 226, [(3R,6R,7S,8E,22S)-6′-Chloro-11,12,12-trimethyl-13,15,15-trioxo-spiro[20-oxa-15-thia-1,11,14-triazatetracyclo[14.7.2.03,6.019,24]pentacosa-8,16,18,24-tetraene-22,1′-tetralin]-7-yl] N-methyl-N-[(3S)-tetrahydrofuran-3-yl]carbamate]: over 9.00 and over 6.30.
Take `COCC[C@H]1C(=O)NS(=O)(=O)c2ccc3c(c2)N(C[C@@H]2CC[C@H]2[C@H](OC)/C=C/C[C@@H]1C)C[C@@]1(CCCc2cc(Cl)ccc21)CO3` [Example 89, (3R,6R,7R,8E,11S,12R,22S)-6′-Chloro-7-methoxy-12-(2-methoxyethyl)-1-methyl-15,15-dioxo-spiro[20-oxa-15-thia-1,14-diazatetracyclo[14.7.2.03,6.019,24]pentacosa-8,16,18,24-tetraene-22,1′-tetralin]-13-one]: on MCL-1, the pKi is 7.00 to 9.00. For the same compound, the pIC50 in the test with H929 cells is under 6.00.
The matching figures for `CO[C@@H]1/C=C/CO[C@H](C)C(=O)NS(=O)(=O)c2ccc3c(c2)N(C[C@@H]2CC[C@H]21)C[C@@]1(CCCc2cc(Cl)ccc21)CO3` [Example 115, (3R,6R,7R,8E,12R,22S)-6′-Chloro-7-methoxy-12-methyl-15,15-dioxo-spiro[11,20-dioxa-15-thia-1,14-diazatetracyclo[14.7.2.03,6.019,24]pentacosa-8,16,18,24-tetraene-22,1′-tetralin]-13-one]: 7.00 to 9.00 and under 6.00.
On to `CO[C@H]1/C=C/CNC(C)(C)C(=O)NS(=O)(=O)c2ccc3c(c2)N(C[C@@H]2CC[C@H]21)C[C@@]1(CCCc2cc(Cl)ccc21)CO3` [Example 136, (3R,6R,7S,8E,22S)-6′-Chloro-7-methoxy-12,12-dimethyl-15,15-dioxo-spiro[20-oxa-15-thia-1,11,14-triazatetracyclo[14.7.2.03,6.019,24]pentacosa-8,16,18,24-tetraene-22,1′-tetralin]-13-one], for which the pKi on MCL-1 was 7.00 to 9.00. In addition, the pIC50 in the test with H929 cells was under 6.00.
On to `CN1C/C=C/[C@@H](O)[C@@H]2CC[C@H]2CN2C[C@@]3(CCCc4cc(Cl)ccc43)COc3ccc(cc32)S(=O)(=O)NC(=O)C12CCC2` [Example 138, (3R,6R,7R,8E,22S)-6′-Chloro-7-hydroxy-11-methyl-12,12-(1,3-propylene)-15,15-dioxo-spiro[20-oxa-15-thia-1,11,14-triazatetracyclo[14.7.2.03,6.019,24]pentacosa[8,16(25),17,19(24)]tetraene-22,1′-tetralin]-13-one], for which the pKi on MCL-1 was 7.00 to 9.00. Moreover, the negative-log IC50 (pIC50) in the test with H929 cells was over 6.00.
The matching figures for `CC1(C)OC/C=C/[C@H](O)[C@@H]2CC[C@H]2CN2C[C@@]3(CCOc4cc(Cl)ccc43)COc3ccc(cc32)S(=O)(=O)NC1=O` [Example 246, (3R,6R,7S,8E,22S)-7′-chloro-7-hydroxy-12,12-dimethyl-15,15-dioxo-spiro[11,20-dioxa-15-thia-1,14-diazatetracyclo[14.7.2.03,6.019,24]pentacosa-8,16,18,24-tetraene-22,4′-chromane]-13-one]: 7.00 to 9.00 and under 6.00.
As for `CN1C(=O)OC[C@@H]2CC[C@H]2CN2C[C@@]3(CCCc4cc(Cl)ccc43)COc3ccc(cc32)S(=O)(=O)NC(=O)N2CC[C@@H]1C2` [Example 101, (3R,6R,11R,24S)-6′-Chloro-10-methyl-17,17-dioxo-spiro[8,22-dioxa-17-thia-1,10,14,16-tetrazapentacyclo[16.7.2.111,14.03,6.021,26]octacosa-18(27),19,21(26)-triene-24,1′-tetralin]-9,15-dione], the pKi at MCL-1 was over 9.00. For the same compound, the pIC50 in the test with H929 cells is under 6.00.
Taken in the same sequence, the figures for `CO[C@@H]1/C=C/CCN(C)C(=O)NS(=O)(=O)c2ccc3c(c2)N(C[C@@H]2CC[C@H]21)C[C@@]1(CCCc2cc(Cl)ccc21)CO3` [Example 107, (3R,6R,7R,8E,22S)-6′-Chloro-7-methoxy-12-methyl-15,15-dioxo-spiro[20-oxa-15-thia-1,12,14-triazatetracyclo[14.7.2.03,6.019,24]pentacosa-8,16,18,24-tetraene-22,1′-tetralin]-13-one] were 7.00 to 9.00 and over 6.00.
Taken in the same sequence, the figures for `CO[C@@H]1CCN(CCO[C@H]2/C=C/COC(C)(C)C(=O)NS(=O)(=O)c3ccc4c(c3)N(C[C@@H]3CC[C@H]32)C[C@@]2(CCCc3cc(Cl)ccc32)CO4)C1` [Example 260, (3R,6R,7S,8E,22S)-6′-Chloro-7-[2-[(3R)-3-methoxypyrrolidin-1-yl]ethoxy]-12,12-dimethyl-15,15-dioxo-spiro[11,20-dioxa-15-thia-1,14-diazatetracyclo[14.7.2.03,6.019,24]pentacosa-8,16,18,24-tetraene-22,1′-tetralin]-13-one] were over 9.00 and over 6.30.
With `CO[C@@H]1/C=C/CNC(=O)NS(=O)(=O)c2ccc3c(c2)N(C[C@@H]2CC[C@H]21)C[C@@]1(CCCc2cc(Cl)ccc21)CO3` [Example 131, (3R,6R,7R,8E,21S)-6′-chloro-7-methoxy-14,14-dioxo-spiro[19-oxa-14-thia-1,11,13-triazatetracyclo[13.7.2.03,6.018,23]tetracosa-8,15,17,23-tetraene-21,1′-tetralin]-12-one], the pKi at MCL-1 is 7.00 to 9.00. The negative-log IC50 (pIC50) in the test with H929 cells was under 6.00.
As to `CC1(C)OC/C=C/[C@H](OC(=O)NC2CC2)[C@@H]2CC[C@H]2CN2C[C@@]3(CCCc4cc(Cl)ccc43)COc3ccc(cc32)S(=O)(=O)NC1=O` [Example 188, [(3R,6R,7S,8E,22S)-6′-Chloro-12,12-dimethyl-13,15,15-trioxo-spiro[11,20-dioxa-15-thia-1,14-diazatetracyclo[14.7.2.03,6.019,24]pentacosa-8,16,18,24-tetraene-22,1′-tetralin]-7-yl] N-cyclopropylcarbamate], the pKi on MCL-1 is over 9.00. The pIC50 with H929 cells is over 6.30.
Consider `COCCN1CCN(C(=O)O[C@H]2/C=C/COC(C)(C)C(=O)NS(=O)(=O)c3ccc4c(c3)N(C[C@@H]3CC[C@H]32)C[C@@]2(CCCc3cc(Cl)ccc32)CO4)CC1` [Example 46, [(3R,6R,7S,8E,22S)-6′-Chloro-12,12-dimethyl-13,15,15-trioxo-spiro[11,20-dioxa-15-thia-1,14-diazatetracyclo[14.7.2.03,6.019,24]pentacosa-8,16,18,24-tetraene-22,1′-tetralin]-7-yl] 4-(2-methoxyethyl)piperazine-1-carboxylate], for which the pKi on MCL-1 was over 9.00. Also, the pIC50 in the test on H929 cells was over 6.30.
The matching figures for `[2H]C([2H])([2H])N1C/C=C/[C@H](OC(=O)N(C)C)[C@@H]2CC[C@H]2CN2C[C@@]3(CCCc4cc(Cl)ccc43)COc3ccc(cc32)S(=O)(=O)NC(=O)C1(C)C` [Example 45, [(3R,6R,7S,8E,22S)-6′-Chloro-12,12-dimethyl-13,15,15-trioxo-11-(trideuteriomethyl)spiro[20-oxa-15-thia-1,11,14-triazatetracyclo[14.7.2.03,6.019,24]pentacosa-8,16,18,24-tetraene-22,1′-tetralin]-7-yl] N,N-dimethylcarbamate]: over 9.00 and over 6.30.
Consider `CN(C(=O)O[C@H]1/C=C/COC2(CCC2)C(=O)NS(=O)(=O)c2ccc3c(c2)N(C[C@@H]2CC[C@H]21)C[C@@]1(CCCc2cc(Cl)ccc21)CO3)C1COC1` [Example 235, [(3R,6R,7S,8E,22S)-6′-Chloro-12,12-(1,3-propylene)-13,15,15-trioxo-spiro[11,20-dioxa-15-thia-1,14-diazatetracyclo[14.7.2.03,6.019,24]pentacosa-8,16,18,24-tetraene-22,1′-tetralin]-7-yl] N-methyl-N-(oxetan-3-yl)carbamate], for which the pKi on MCL-1 was over 9.00. In the test on H929 cells, the pIC50 is over 6.30.
Taken in the same sequence, the figures for `CC1(C)OC/C=C/[C@H](OC(=O)NC2CCC2)[C@@H]2CC[C@H]2CN2C[C@@]3(CCCc4cc(Cl)ccc43)COc3ccc(cc32)S(=O)(=O)NC1=O` [Example 184, [(3R,6R,7S,8E,22S)-6′-Chloro-12,12-dimethyl-13,15,15-trioxo-spiro[11,20-dioxa-15-thia-1,14-diazatetracyclo[14.7.2.03,6.019,24]pentacosa-8,16,18,24-tetraene-22,1′-tetralin]-7-yl] N-cyclobutylcarbamate] were over 9.00 and over 6.30.

The record behind these values is patent publication US11130769B2 (Prelude Therapeutics Incorporated, priority 2018, dated 2021).
